Results taken from ChEMBL document CHEMBL1150008, “Synthesis and -lactamase inhibitory evaluation of novel 6-halo-2-chloromethyl-2-methylpenam-3-carboxylic acids and their sulfones and 6-halo-2-mercaptobenzothiazolylmethyl-2-methylpenam-3-carboxylic acids” (Bioorg Med Chem Lett, 1995).

Legend:
Beta-lactamase 1 [1] = biological target: T1, Beta-lactamase 1 (Bacillus cereus, UniProt P00809); assay: Tested for the ability to inhibit Beta-lactamase of Bacillus cereus (class A enzyme) with 10 minutes pre-incubation
T1 sequence (P00809 whole entry): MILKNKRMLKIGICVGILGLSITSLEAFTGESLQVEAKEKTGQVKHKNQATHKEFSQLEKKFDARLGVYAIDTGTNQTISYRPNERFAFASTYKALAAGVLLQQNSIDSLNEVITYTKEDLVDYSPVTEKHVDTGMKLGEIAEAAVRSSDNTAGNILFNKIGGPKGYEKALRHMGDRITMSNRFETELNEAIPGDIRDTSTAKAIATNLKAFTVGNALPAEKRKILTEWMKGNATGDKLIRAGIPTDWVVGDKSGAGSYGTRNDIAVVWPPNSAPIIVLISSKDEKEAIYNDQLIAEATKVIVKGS

Beta-lactamase 1 [2] = biological target: T1, Beta-lactamase 1; assay: Inhibition of Beta-lactamase of Bacillus cereus (class A enzyme) without pre-incubation

Row | SMILES | IC50 (Beta-lactamase 1 [1]) [µM] | IC50 (Beta-lactamase 1 [2]) [µM]
1 | C[C@@]1(CSc2nc3ccccc3s2)S[C@@H]2[C@@H](Cl)C(=O)N2[C@H]1C(=O)O | > 5000 | > 5000
2 | C[C@@]1(CSc2nc3ccccc3s2)S[C@@H]2[C@@H](Br)C(=O)N2[C@H]1C(=O)O | > 5000 | > 5000
3 | C[C@]1(CCl)[C@H](C(=O)O)N2C(=O)[C@H](Cl)[C@H]2S1(=O)=O | 70 | 450
4 | CC1(C)[C@H](C(=O)O)N2C(=O)[C@H](Cl)[C@H]2S1(=O)=O | 200 | 1500
5 | C[C@@]1(CSc2nc3ccccc3s2)S[C@@H]2[C@@H](F)C(=O)N2[C@H]1C(=O)O | > 5000 | > 5000
6 | C[C@]1(CCl)[C@H](C(=O)O)N2C(=O)C[C@H]2S1(=O)=O | 300 | 250
7 | C[C@]1(CCl)[C@H](C(=O)O)N2C(=O)[C@H](F)[C@H]2S1(=O)=O | > 3000 | > 3000
8 | C[C@]1(CCl)[C@H](C(=O)O)N2C(=O)[C@H](Br)[C@H]2S1(=O)=O | 1000 | 3000
9 | CC1(C)[C@H](C(=O)O)N2C(=O)C[C@H]2S1(=O)=O [SULBACTAM] | 25 | 25
